# From patent US7034048B2, “Gastrin and cholecystokinin receptor ligands (III)” (James Black Foundation Limited, priority 2000, dated 2006)
# Molecular target: T1, gastrin (CCK2) receptors (Rattus norvegicus, UniProt P30553)
# T1 construct: The stomach was excised and flushed with ca. 1 ml of unbuffered physiological saline solution; from tissue; host or cells: isolated, lumen-perfused stomach of immature rats (33-50 g, ca. 21 days old)
# T1 sequence (P30553 1-452): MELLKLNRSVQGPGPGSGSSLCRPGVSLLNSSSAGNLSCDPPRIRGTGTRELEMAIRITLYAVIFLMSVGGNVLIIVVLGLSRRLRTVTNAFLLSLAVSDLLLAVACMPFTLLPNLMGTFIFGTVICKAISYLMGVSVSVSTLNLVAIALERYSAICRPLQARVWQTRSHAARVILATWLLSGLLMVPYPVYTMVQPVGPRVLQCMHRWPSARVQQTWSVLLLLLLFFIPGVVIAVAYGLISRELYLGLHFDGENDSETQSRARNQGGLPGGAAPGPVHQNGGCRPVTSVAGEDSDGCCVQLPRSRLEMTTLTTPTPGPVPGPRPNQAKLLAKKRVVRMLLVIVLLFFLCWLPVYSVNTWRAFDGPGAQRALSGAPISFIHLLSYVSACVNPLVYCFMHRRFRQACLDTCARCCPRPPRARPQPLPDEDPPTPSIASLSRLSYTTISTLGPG
# Assay: immature rat stomach assay, gastrin (CCK2) antagonist activity against pentagastrin-stimulated acid secretion
# Conditions: isolated immature rat stomach, 60 min incubation, then cumulative pentagastrin dose-response curves, read-out: Rat Stomach pKB (converted)
# Method: The compounds of the examples were tested for gastrin (CCK2) antagonist activity in an immature rat stomach assay. The procedure was as follows: The oesophagus of immature rats (33–50 g, ca. 21 days old) was ligated at the level of the cardiac sphincter and the duodenal sphincter was cannulated. The stomach was excised and flushed with ca. 1 ml of unbuffered physiological saline solution. The fundus was punctured and cannulated. A further 4–5 ml of unbuffered solution was flushed through the stomach to ensure the preparation was not leaking. The stomach was lowered into a jacketed organ bath containing 40 ml of buffered solution containing 3×10^−8 M 5-methylfurmethide, maintained at 37° and gassed vigorously with 95% O2/5% CO2. The stomach was continuously perfused at a rate of 1 ml min^−1 with unbuffered solution gassed with 100% O2 with the perfusate passing over an internally referenced pH-electrode fixed 12 cm above the stomach. After 120 min of stabilisation the drugs were added directly to the serosal solution in the organ bath and after a further 60 min cumulative pentagastrin dose-response curves were started. Changes in acid secretion were monitored and the curves analysed according to Black et al., Br. J. Pharmacol. 1985, 86, 581.
row,Structure (SMILES),Kb [µM]
1,"O=C(O)c1cccc2[nH]c(-c3nc(C4CCCCC4)[nH]c3COC34CC5CC(CC(C5)C3)C4)nc12 [Example 4, 2-[5-(Adamantan-1-yloxymethyl)-2-cyclohexyl-1H-imidazole-4-yl]-1H-benzoimidazole-4-carboxylic acid]",0.372
2,"O=C(O)c1ccc2[nH]c(-c3nc(C4CCCCC4)[nH]c3COC34CC5CC(CC(C5)C3)C4)nc2c1 [Example 3, 2-[5-(Adamantan-1-yloxymethyl)-2-cyclohexyl-1H-imidazole-4-yl]-1H-benzoimidazole-5-carboxylic acid]",3.39

# Results, then the molecule that gave them:
row,Kb [µM],Structure (SMILES)
1,3.31,"O=C(O)c1ccc2oc(-c3nc(C4CCCCC4)[nH]c3COC34CC5CC(CC(C5)C3)C4)nc2c1 [Example 1, 2-[5-(Adamantan-1-yloxymethyl)-2-cyclohexyl-1H-imidazole-4-yl]-benzooxazole-5-carboxylic acid]"
2,1.62,"O=C(O)c1ccc2nc(-c3nc(C4CCCCC4)[nH]c3COC34CC5CC(CC(C5)C3)C4)oc2c1 [Example 2, 2-[5-(Adamantan-1-yloxymethyl)-2-cyclohexyl-1H-imidazole-4-yl]-benzooxazole-6-carboxylic acid]"
3,2.04,"O=C(O)Cc1ccc2oc(-c3nc(C4CCCCC4)[nH]c3COC34CC5CC(CC(C5)C3)C4)nc2c1 [Example 5, {2-[5-(Adamantan-1-yloxymethyl)-2-cyclohexyl-1H-imidazole-4-yl]-benzooxazol-5-yl}-acetic acid]"
